What was measured:
Test in all cases: relative viability (nuclei count vs DMSO), 5 days (fraction); higher = more cells survive
Cediranib + AZD7762 = compound: COc1cc2c(Oc3ccc4[nH]c(C)cc4c3F)ncnc2cc1OCCCN1CCCC1 [Cediranib] + NC(=O)Nc1cc(-c2cccc(F)c2)sc1C(=O)N[C@H]1CCCNC1 [AZD7762] (partner 0.2 µM)
Procedure, shortened: (§1)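 Values are medians from duplicate plates. Each reflects relative viability, defined as the nuclei count of treated wells over that of vehicle wells. Lung cancer cell lines in 1536-well plates were pin-tool dosed one day after seeding with one drug alone or with a fixed anchor-drug dose plus five library-drug doses (not always all listed) in √10 steps, then fixed, stained and imaged at 4× after 5 days.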

Decitabine + Linsitinib = compound: Nc1ncn([C@H]2C[C@H](O)[C@@H](CO)O2)c(=O)n1 [Decitabine] + C[C@]1(O)C[C@@H](c2nc(-c3ccc4ccc(-c5ccccc5)nc4c3)c3c(N)nccn32)C1 [Linsitinib] (partner 1 µM)
Procedure, shortened: as §1

Decitabine + AZD7762 = compound: Nc1ncn([C@H]2C[C@H](O)[C@@H](CO)O2)c(=O)n1 [Decitabine] + NC(=O)Nc1cc(-c2cccc(F)c2)sc1C(=O)N[C@H]1CCCNC1 [AZD7762] (partner 0.2 µM)
Procedure, shortened: as §1

Halofuginone + Dasatinib = compound: O=C(C[C@H]1NCCC[C@@H]1O)Cn1cnc2cc(Br)c(Cl)cc2c1=O (racemic) [Halofuginone] + Cc1nc(Nc2ncc(C(=O)Nc3c(C)cccc3Cl)s2)cc(N2CCN(CCO)CC2)n1 [Dasatinib] (partner 0.075 µM)
Procedure, shortened: as §1

| Cell Line | relative viability (Cediranib + AZD7762; first compound 0.04 µM) | relative viability (Cediranib + AZD7762; first compound 0.1265 µM) | relative viability (Cediranib + AZD7762; first compound 0.4 µM) | relative viability (Cediranib + AZD7762; first compound 1.265 µM) | relative viability (Cediranib + AZD7762; first compound 4 µM) | relative viability (Decitabine + Linsitinib; first compound 0.04 µM) | relative viability (Decitabine + Linsitinib; first compound 0.1265 µM) | relative viability (Decitabine + Linsitinib; first compound 0.4 µM) | relative viability (Decitabine + Linsitinib; first compound 1.265 µM) | relative viability (Decitabine + Linsitinib; first compound 4 µM) | relative viability (Decitabine + AZD7762; first compound 0.04 µM) | relative viability (Decitabine + AZD7762; first compound 0.1265 µM) | relative viability (Decitabine + AZD7762; first compound 0.4 µM) | relative viability (Decitabine + AZD7762; first compound 1.265 µM) | relative viability (Decitabine + AZD7762; first compound 4 µM) | relative viability (Halofuginone + Dasatinib; first compound 0.001 µM) | relative viability (Halofuginone + Dasatinib; first compound 0.003162 µM) | relative viability (Halofuginone + Dasatinib; first compound 0.01 µM) | relative viability (Halofuginone + Dasatinib; first compound 0.03162 µM) | relative viability (Halofuginone + Dasatinib; first compound 0.1 µM) |
| --- | --- | --- | --- | --- | --- | --- | --- | --- | --- | --- | --- | --- | --- | --- | --- | --- | --- | --- | --- | --- |
| NCI-H2126 | 0.985 | 1.08 | 1.01 | 0.87 | 1.05 | 0.698 | 0.677 | 0.591 | 0.533 | 0.489 | 0.874 | 0.938 | 0.577 | 0.713 | 0.591 | 0.661 | 0.663 | 0.635 | 0.562 | 0.405 |
| NCI-H2347 | 0.808 | 0.808 | 0.755 | 0.746 | 0.691 | 0.936 | 0.935 | 0.725 | 0.639 | 0.625 | 0.734 | 0.67 | 0.69 | 0.398 | 0.433 | 0.299 | 0.308 | 0.334 | 0.281 | 0.194 |
| NCI-H2405 | 0.749 | 1.31 | 0.594 | 0.864 | 0.803 | 0.838 | 0.891 | 0.74 | 0.548 | 0.465 | 0.814 | 0.902 | 0.977 | 0.501 | 0.431 | 0.21 | 0.246 | 0.241 | 0.209 | 0.223 |
| NCI-H3122 | 1.05 |  | 0.95 | 0.969 | 1.07 | 1.01 | 1.01 | 0.941 | 0.788 | 0.711 | 0.927 | 0.823 | 0.529 | 0.466 | 0.5 | 0.852 | 0.658 | 0.735 | 0.806 | 0.66 |
| PC-3 [JPC-3] | 0.758 |  | 0.769 | 0.749 | 0.783 |  | 0.8 | 0.676 | 0.64 | 0.607 |  | 0.793 | 0.6 | 0.453 | 0.602 | 0.933 | 0.966 | 0.955 | 1.02 | 1.03 |
| PC-14 | 0.247 | 0.377 | 0.355 | 0.262 | 0.344 |  | 0.784 | 0.268 | 0.283 | 0.23 | 0.194 | 0.281 | 0.124 | 0.159 | 0.116 | 0.259 | 0.305 | 0.189 | 0.0636 | 0.03 |
| RERF-LC-KJ | 0.92 | 0.411 | 0.881 | 0.725 | 0.923 | 0.836 | 0.763 | 0.239 | 0.677 | 0.637 | 0.822 | 0.95 | 0.439 | 0.75 | 0.832 | 0.875 | 0.91 | 0.764 | 0.862 | 0.633 |

Reference: the supplement of paper PMC10307832
